Results published in US20140155376A1, “PYRROLOPYRAZINE KINASE INHIBITORS” (Hoffmann-La Roche Inc., priority 2010, published 2014).

Target: T1, JAK3 (recombinant human kinase domain; h-jak3(810-1124)) (Homo sapiens, UniProt P52333)
T1 construct: h-jak3(810- 1124)-sf9-c; made in house; host or cells: Sf9 insect cells
Assay: Determination of IC50 of Janus Kinase (JAK) inhibition: JAK3, radioactive end-point assay with 33P-ATP
Type: biochemical
Settings: JAK3 kinase domain; ATP 1.5 uM, peptide 50 uM, 20 minutes, room temperature, 10% DMSO; read-out: Ic50 h-jak3(810-1124)-sf9-c:no additive
Description: Determination of IC50 of Janus Kinase (JAK) Inhibition:
Enzymes and peptide substrate used are described below: • JAK1: Recombinant human kinase domain from Invitrogen (Cat # PV4774) • JAK3: Recombinant human kinase domain from Millipore (Cat #14-629) or prepared. • JAK2: Recombinant human kinase domain from Millipore (Cat #14-640) • Substrate: N-terminally biotinylated 14-mer peptide derived from activation loop of JAK1 with sequence of the peptide substrate: Biotin-[sequence]
Assay Conditions Used are Described Below: • Assay Buffer: JAK Kinase Buffer: 50 mM Hepes [pH 7.2], 10 mM MgCl2, 1 mM DTT, • 1 mg/ml BSA. The assay is carried out in this buffer. • Assay Format The kinase activity of all three JAK kinases is measured using a radioactive, end-point assay and with trace amounts of ^33P-ATP. The assays are carried out in 96-well polypropylene plates.
All concentrations are final in the reaction mixture and all incubations are carried at room temperature. […] Final concentration of DMSO in the reaction is 10%. • 2) Compounds are preincubated with enzyme (0.5 nM JAK3 (commercially available), 0.2 nM JAK3 (prepared), 1 nM JAK2, 5 nM JAK1) for 10 minutes. • 3) Reactions are initiated by the addition of a cocktail of the two substrates (ATP and peptide premixed in the JAK Kinase Buffer). In the JAK2/JAK3 assays, ATP and the peptide are used at concentrations of 1.5 uM and 50 uM, respectively. JAK1 assay is carried out at an ATP concentration of 10 uM and a peptide concentration of 50 uM. • 4) The duration of the assay for JAK2 and JAK3 is 20 minutes. JAK1 assay is carried out for 40 minutes. With all three enzymes, reactions are terminated by the addition of 0.5M EDTA to a final concentration of 100 mM. • 5) 25 ul of terminated reactions are transferred to 150 ul of a 7.5% (v/v) slurry of streptavidin-coated sepharose beads in MgCl2- and CaCl2-free 1× Phosphate Buffered Saline containing 50 mM of EDTA in 96-well, 1.2 um MultiScreen-BV filter plates. • 6) After a 30-minute incubation, the beads are washed under vacuum with the following buffers: • a. 3 to 4 washes with 200 ul of 2M NaCl. • b. 3 to 4 washes with 200 ul of 2M NaCl plus 1% (v/v) phosphoric acid. • c. 1 wash with water. • 7) Washed plates are dried in a 60° C. oven for between 1 to 2 hours. • 8) 70 ul of Microscint 20 scintillation fluid is added to each well of filter plates and after at least 30 minutes of incubation, radioactive counts are measured in a Perkin-Elmer microplate scintillation counter.

T1 sequence (P52333 810-1124): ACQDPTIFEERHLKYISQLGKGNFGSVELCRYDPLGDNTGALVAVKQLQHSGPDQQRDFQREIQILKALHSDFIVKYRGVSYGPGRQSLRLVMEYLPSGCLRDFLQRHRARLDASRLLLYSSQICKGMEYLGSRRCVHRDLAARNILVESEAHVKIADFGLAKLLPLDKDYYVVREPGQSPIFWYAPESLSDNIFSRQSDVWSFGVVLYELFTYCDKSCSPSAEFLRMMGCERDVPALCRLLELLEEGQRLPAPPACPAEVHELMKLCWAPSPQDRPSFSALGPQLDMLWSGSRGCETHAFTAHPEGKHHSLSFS

Row | SMILES | IC50 [nM]
1 | CC(C)(O)C(NC(=O)c1c[nH]c2ncc(C3CC3)nc12)C(F)(F)F (stereo not shown) [Example I-93, 2-Cyclopropyl-5H-pyrrolo[2,3-b]pyrazine-7-carboxylic acid (2-hydroxy-2-methyl-1-trifluoromethyl-propyl)-amide] | 57.8
2 | C[C@@H](NC(=O)c1c[nH]c2ncc(Oc3ccc(F)cc3F)nc12)C(C)(C)C [Example I-134, 2-(2,4-Difluoro-phenoxy)-5H-pyrrolo[2,3-b]pyrazine-7-carboxylic acid ((R)-1,2,2-trimethyl-propyl)-amide] | 891
3 | CC(Cn1cccn1)NC(=O)c1ccc(-c2cnc3[nH]cc(C(=O)N[C@@H](C)C(C)(C)C)c3n2)s1 (stereo partly drawn) [Example I-158, 2-[5-(1-Methyl-2-pyrazol-1-yl-ethylcarbamoyl)-thiophen-2-yl]-5H-pyrrolo[2,3-b]pyrazine-7-carboxylic acid ((S)-1,2,2-trimethyl-propyl)-amide] | 0.32
4 | CC(C)(C)[C@H](CC#N)NC(=O)c1c[nH]c2ncc(C3CC3)nc12 [Example I-77, 2-Cyclopropyl-5H-pyrrolo[2,3-b]pyrazine-7-carboxylic acid ((S)-1-cyanomethyl-2,2-dimethyl-propyl)-amide] | 13.7
5 | O=C(NC(C1CCCCC1)C1CC1)c1c[nH]c2ncc(C3CC3)nc12 (stereo not shown) [Example I-78, 2-Cyclopropyl-5H-pyrrolo[2,3-b]pyrazine-7-carboxylic acid (cyclohexyl-cyclopropyl-methyl)-amide] | 78.6
6 | C[C@H](NC(=O)c1c[nH]c2ncc(C3CC3)nc12)[C@](C)(O)C(F)(F)F [Example I-63, 2-Cyclopropyl-5H-pyrrolo[2,3-b]pyrazine-7-carboxylic acid ((1S,2S)-3,3,3-trifluoro-2-hydroxy-1,2-dimethyl-propyl)-amide] | 30.5
7 | CC(NC(=O)c1c[nH]c2ncc(C3CC3)nc12)C1CCOCC1 (stereo not shown) [Example I-85, 2-Cyclopropyl-5H-pyrrolo[2,3-b]pyrazine-7-carboxylic acid [1-(tetrahydro-pyran-4-yl)-ethyl]-amide] | 72.5
8 | CC(C)(O)[C@@H](NC(=O)c1c[nH]c2ncc(C3CC3)nc12)C1CC1 [Example I-73, 2-Cyclopropyl-5H-pyrrolo[2,3-b]pyrazine-7-carboxylic acid ((S)-1-cyclopropyl-2-hydroxy-2-methyl-propyl)-amide] | 92.4
9 | C[C@H](NC(=O)c1c[nH]c2ncc(-c3ccc(C(=O)N4CCC4)s3)nc12)C(C)(C)C [Example I-180, 2-[5-(Azetidine-1-carbonyl)-thiophen-2-yl]-5H-pyrrolo[2,3-b]pyrazine-7-carboxylic acid ((S)-1,2,2-trimethyl-propyl)-amide] | 0.32
10 | CC(=O)N1CCC(CNC(=O)c2c[nH]c3ncc(C4CC4)nc23)C1 (stereo not shown) [Example I-137, 2-Cyclopropyl-5H-pyrrolo[2,3-b]pyrazine-7-carboxylic acid (1-acetyl-pyrrolidin-3-ylmethyl)-amide] | 346
11 | CC[C@@](C)(O)[C@H](C)NC(=O)c1c[nH]c2ncc(C3CC3)nc12 [Example I-34, 2-Cyclopropyl-5H-pyrrolo[2,3-b]pyrazine-7-carboxylic acid ((1S,2R)-2-hydroxy-1,2-dimethyl-butyl)-amide] | 36.4
12 | C[C@@H](NC(=O)c1c[nH]c2ncc(Oc3ccc(F)cc3F)nc12)C1CCCCC1 [Example I-124, 2-(2,4-Difluoro-phenoxy)-5H-pyrrolo[2,3-b]pyrazine-7-carboxylic acid ((R)-1-cyclohexyl-ethyl)-amide] | 442
13 | CC[C@@](C)(O)[C@@H](C)NC(=O)c1c[nH]c2ncc(C3CC3)nc12 [Example I-83, 2-Cyclopropyl-5H-pyrrolo[2,3-b]pyrazine-7-carboxylic acid ((1R,2R)-2-hydroxy-1,2-dimethyl-butyl)-amide] | 47.2
14 | C[C@H]1C[C@H]1c1cnc2[nH]cc(C(=O)NCC(C)(C)CO)c2n1 [Example I-46, 2-((1R,2S)-2-Methyl-cyclopropyl)-5H-pyrrolo[2,3-b]pyrazine-7-carboxylic acid (3-hydroxy-2,2-dimethyl-propyl)-amide] | 228
15 | CCNC(=O)c1c[nH]c2ncc(Oc3ccccc3)nc12 [Example I-131, 2-Phenoxy-5H-pyrrolo[2,3-b]pyrazine-7-carboxylic acid ethylamide] | 1030
16 | C[C@H](NC(=O)c1c[nH]c2ncc(Oc3ccc(F)cc3F)nc12)C(C)(C)C [Example I-133, 2-(2,4-Difluoro-phenoxy)-5H-pyrrolo[2,3-b]pyrazine-7-carboxylic acid ((S)-1,2,2-trimethyl-propyl)-amide] | 154
17 | CC[C@H](C)NC(=O)c1c[nH]c2ncc(C3CC3)nc12 [Example I-22, 2-Cyclopropyl-5H-pyrrolo[2,3-b]pyrazine-7-carboxylic acid ((S)-sec-butyl)-amide] | 5.9
18 | C[C@@H](CO)NC(=O)c1c[nH]c2ncc(C3CC3)nc12 [Example I-57, 2-Cyclopropyl-5H-pyrrolo[2,3-b]pyrazine-7-carboxylic acid ((S)-2-hydroxy-1-methyl-ethyl)-amide] | 217
19 | C[C@H](NC(=O)c1c[nH]c2ncc(-c3ccc(C(F)(F)F)cc3)nc12)C(C)(C)C [Example I-143, 2-(4-Trifluoromethyl-phenyl)-5H-pyrrolo[2,3-b]pyrazine-7-carboxylic acid ((S)-1,2,2-trimethyl-propyl)-amide] | 6.28
20 | CC(C)(CCO)NC(=O)c1c[nH]c2ncc(C3CC3)nc12 [Example I-42, 2-Cyclopropyl-5H-pyrrolo[2,3-b]pyrazine-7-carboxylic acid (3-hydroxy-1,1-dimethyl-propyl)-amide] | 131
21 | C[C@H](NC(=O)c1c[nH]c2ncc(C3CCCC3)nc12)C(C)(C)O [Example I-6, 2-Cyclopentyl-5H-pyrrolo[2,3-b]pyrazine-7-carboxylic acid ((S)-2-hydroxy-1,2-dimethyl-propyl)-amide] | 126
22 | CC(C)NC(=O)c1ccc(-c2cnc3[nH]cc(C(=O)N[C@@H](C)C(C)(C)C)c3n2)s1 [Example I-156, 2-(5-Isopropyl-carbamoyl-thiophen-2-yl)-5H-pyrrolo[2,3-b]pyrazine-7-carboxylic acid ((S)-1,2,2-trimethyl-propyl)-amide] | 0.35
23 | Cc1cccc(-n2cnc(-c3cnc4[nH]cc(C(=O)N[C@@H](C)C(C)(C)C)c4n3)c2)c1 [Example I-150, 2-(1-m-Tolyl-1H-imidazol-4-yl)-5H-pyrrolo[2,3-b]pyrazine-7-carboxylic acid ((S)-1,2,2-trimethyl-propyl)-amide] | 5.12
24 | CC(C)c1cnc2[nH]cc(C(=O)N[C@@H](C)C(C)(C)O)c2n1 [Example I-5, 2-Isopropyl-5H-pyrrolo[2,3-b]pyrazine-7-carboxylic acid ((S)-2-hydroxy-1,2-dimethyl-propyl)-amide] | 302

Continued, values first:

Row | IC50 [nM] | SMILES
25 | 0.52 | Cc1ccc([C@@H](C)NC(=O)c2ccc(-c3cnc4[nH]cc(C(=O)N[C@@H](C)C(C)(C)C)c4n3)s2)cc1 [Example I-202, 2-[5-((R)-1-p-Tolyl-ethylcarbamoyl)-thiophen-2-yl]-5H-pyrrolo[2,3-b]pyrazine-7-carboxylic acid ((S)-1,2,2-trimethyl-propyl)-amide]
26 | 0.6 | C[C@H](NC(=O)c1c[nH]c2ncc(-c3ccc(C(=O)NCc4c(F)cccc4Cl)s3)nc12)C(C)(C)C [Example I-189, 2-[5-(2-Chloro-6-fluoro-benzylcarbamoyl)-thiophen-2-yl]-5H-pyrrolo[2,3-b]pyrazine-7-carboxylic acid ((S)-1,2,2-trimethyl-propyl)-amide]
27 | 677 | CC(C)NC(=O)c1c[nH]c2ncc(Oc3cccc4ccccc34)nc12 [Example I-241, 2-(Naphthalen-1-yloxy)-5H-pyrrolo[2,3-b]pyrazine-7-carboxylic acid isopropylamide]
28 | 2170 | CC(C)NC(=O)c1c[nH]c2ncc(Oc3ccccc3OC(F)(F)F)nc12 [Example I-253, 2-(2-Trifluoromethoxy-phenoxy)-5H-pyrrolo[2,3-b]pyrazine-7-carboxylic acid isopropylamide]
29 | 0.55 | C[C@H](NC(=O)c1c[nH]c2ncc(-c3ccc(C(=O)N[C@H]4C[C@@H]4c4ccccc4)s3)nc12)C(C)(C)C [Example I-191, 2-[5-((1S,2R)-2-Phenyl-cyclopropyl-carbamoyl)-thiophen-2-yl]-5H-pyrrolo[2,3-b]pyrazine-7-carboxylic acid ((S)-1,2,2-trimethyl-propyl)-amide]
30 | 0.42 | Cc1ccc(CNC(=O)c2ccc(-c3cnc4[nH]cc(C(=O)N[C@@H](C)C(C)(C)C)c4n3)s2)o1 [Example I-193, 2-{5-[(5-Methyl-furan-2-ylmethyl)-carbamoyl]-thiophen-2-yl}-5H-pyrrolo[2,3-b]pyrazine-7-carboxylic acid ((S)-1,2,2-trimethyl-propyl)-amide]
31 | 3310 | CCNC(=O)c1c[nH]c2ncc(Oc3cccc(C#N)c3)nc12 [Example I-245, 2-(3-Cyano-phenoxy)-5H-pyrrolo[2,3-b]pyrazine-7-carboxylic acid ethylamide]
32 | 0.4 | Cc1csc(CNC(=O)c2ccc(-c3cnc4[nH]cc(C(=O)N[C@@H](C)C(C)(C)C)c4n3)s2)c1 [Example I-192, 2-{5-[(4-Methyl-thiophen-2-ylmethyl)-carbamoyl]-thiophen-2-yl}-5H-pyrrolo[2,3-b]pyrazine-7-carboxylic acid ((S)-1,2,2-trimethyl-propyl)-amide]
33 | 0.18 | C[C@H](NC(=O)c1c[nH]c2ncc(-c3ccc(C(=O)NCCC(F)(F)F)s3)nc12)C(C)(C)C [Example I-216, 2-[5-(3,3,3-Trifluoro-propylcarbamoyl)-thiophen-2-yl]-5H-pyrrolo[2,3-b]pyrazine-7-carboxylic acid ((S)-1,2,2-trimethyl-propyl)-amide]
34 | 10.6 | C[C@H](NC(=O)c1c[nH]c2ncc(-c3ccc(C(=O)NCc4cccc(C#N)c4)s3)nc12)C(C)(C)C [Example I-227, 2-[5-(3-Cyano-benzylcarbamoyl)-thiophen-2-yl]-5H-pyrrolo[2,3-b]pyrazine-7-carboxylic acid ((S)-1,2,2-trimethyl-propyl)-amide]
